# Results: patent US20160158200A1, “Combinations of Hepatitis C Virus Inhibitors” (priority 2013, published 2016)
# Tested on: HCV genotype-1a variant with glutamine 30 changed to glutamate in the NS5A protein
# Format: cell-based
# Settings: test compound titrated with BMS-790052 fixed at 200 nM; genotype 1a Q30E replicon
# Outline: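 Synergy was assessed by combining several fixed amounts of an NS5A-targeting compound with a titration of the second compound of interest.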
row,SMILES,Fold-Synergistic 1a (Q30E) [fold]
1,CC(C)[C@H](NC(=O)C12CC3CC(CC(C3)C1)C2)c1ncc(-c2ccc(-c3ccc(-c4cnc([C@@H](NC(=O)C56CC7CC(CC(C7)C5)C6)C(C)C)[nH]4)cc3)cc2)[nH]1 [Compound P-60],>100
2,CC(C)[C@H](NC(=O)N1CCC(F)(F)CC1)c1nc(-c2ccc(-c3ccc(-c4c[nH]c([C@@H](NC(=O)N5CCC(F)(F)CC5)C(C)C)n4)cc3)cc2)c[nH]1 [Compound P-130],>100
3,Cc1ccc(C(=O)N[C@H](c2nc(-c3ccc(-c4ccc(-c5c[nH]c([C@@H](NC(=O)c6ccc(C)s6)C(C)(C)C)n5)cc4)cc3)c[nH]2)C(C)(C)C)s1 [Compound N-64],>100
4,CC(C)(C)[C@H](NC(=O)C(C)(C)n1cnnn1)c1nc(-c2ccc(-c3ccc(-c4c[nH]c([C@@H](NC(=O)C(C)(C)n5cnnn5)C(C)(C)C)n4)cc3)cc2)c[nH]1 [Compound S-277],>100
5,CC(C)[C@H](NC(=O)CCN1CCOCC1)c1ncc(-c2ccc(-c3ccc(-c4cnc([C@@H](NC(=O)CCN5CCOCC5)C(C)C)[nH]4)cc3)cc2)[nH]1 [Compound S-62],<10
6,COc1cccc2c(C(=O)N3[C@@H]4C[C@@H]4C[C@H]3c3ncc(-c4ccc(-c5ccc(-c6cnc([C@@H]7C[C@H]8C[C@H]8N7C(=O)c7nc(Cl)cc8c(OC)cccc78)[nH]6)cc5)cc4)[nH]3)nc(Cl)cc12 [Compound P-49],>100
7,"CC(C)(C(=O)N[C@H](c1nc(-c2ccc(-c3ccc(-c4cnc([C@@H](NC(=O)C(C)(C)C5CCCO5)C(C)(C)C)[nH]4)cc3)cc2)c[nH]1)C(C)(C)C)C1CCCO1 (single isomer, unassigned) [Compound B-169]",>100
8,CC(C)(C)OC(=O)N1CC2(CC2)C[C@H]1C(=O)N[C@H](c1nc(-c2ccc(-c3ccc(-c4c[nH]c([C@@H](NC(=O)[C@@H]5CC6(CC6)CN5C(=O)OC(C)(C)C)C(C)(C)C)n4)cc3)cc2)c[nH]1)C(C)(C)C [Compound W-94],>100
9,COC(C)(C)C(=O)N[C@H](c1nc(-c2ccc(-c3ccc(-c4c[nH]c([C@@H](NC(=O)C(C)(C)OC)C(C)C)n4)c(F)c3)cc2)c[nH]1)C(C)C.O=C(O)C(F)(F)F [Compound N-87],>100
10,COC(C)(C)C(=O)N[C@H](c1nc(-c2ccc(-c3ccc(-c4c[nH]c([C@@H](NC(=O)C(C)(C)OC)C(C)C)n4)cc3F)cc2)c[nH]1)C(C)C.O=C(O)C(F)(F)F [Compound N-96],>100
11,CC(C)[C@H](NC(=O)c1c(F)cccc1Cl)c1ncc(-c2ccc(-c3ccc(-c4cnc([C@@H](NC(=O)c5c(F)cccc5Cl)C(C)C)[nH]4)cc3)cc2)[nH]1 [Compound S-6],>100
12,"CC(C)(C)[C@H](NC(=O)[C@@]1(C)CCC(F)(F)CO1)c1nc(-c2ccc(-c3ccc(-c4c[nH]c([C@@H]5CCCN5C(=O)c5nccc6c(Cl)cccc56)n4)cc3)cc2)c[nH]1 [Compound Y-85, (R)—N—((S)-1-(4-(4′-(2-((S)-1-(5-chloroisoquinoline-1-carbonyl)pyrrolidin-2-yl)-1H-imidazol-4-yl)-[1,1′-biphenyl]-4-yl)-1H-imidazol-2-yl)-2,2-dimethylpropyl)-5,5-difluoro-2-methyltetrahydro-2H-pyran-2-carboxamide]",>100
13,"CC(C)(C)[C@H](NC(=O)C1CC12CCC(F)(F)CC2)c1nc(-c2ccc(-c3ccc(-c4c[nH]c([C@@H](NC(=O)C5CC56CCC(F)(F)CC6)C(C)(C)C)n4)cc3)cc2)c[nH]1 (single isomer, unassigned) [Compound Y-95]",>100
14,CC1(C(=O)NC(c2nc(-c3ccc(-c4ccc(-c5c[nH]c(C(NC(=O)C6(C)CC(F)(F)CCO6)C(C)(C)C)n5)cc4)cc3)c[nH]2)C(C)(C)C)CC(F)(F)CCO1 (centres unmarked) [Compound Y-75],>100
